The source of these data is patent US20220088020A1, “TREATMENT OF ALOPECIA AREATA” (LEO PHARMA A/S, priority 2015, published 2022).

Assay [1] has as its system C3H/HeJ mouse alopecia model. Put plainly: Experiment 1: promotion of hair growth in C3H/HeJ mouse alopecia model. The assay is classed as in vivo. The conditions noted are these: Compound A 1% or 3% by weight in carrier, 50 μL applied to dorsal region once a day for 78 days; median of each group, FIG. 1. The procedure:
(§1) An effect of promoting hair growth by Compound A was evaluated using a C3H/HeJ mouse alopecia model (Non-Patent Literature 1).
A skin specimen having a diameter of 2 to 2.5 cm was prepared from a retired C3H/HeJJcI mouse (CLEA Japan, Inc.) which had spontaneously developed alopecia universalis, and was grafted into a dorsal region of each of eight-week-old female C3H/HeJJcI mice (CLEA Japan, Inc.). Twenty weeks after the surgery, mice which developed alopecia throughout the whole bodies thereof were selected, and a carrier, 1% by weight of a test substance, 3% by weight of the test substance or a control substance was applied to the dorsal region at a volume of 50 μL once a day for 78 days. Day 1 was a day on which the application started. The carrier used was a mixture which contained white soft paraffin, hard paraffin and squalane at a blend ratio of 85:5:10. Compound A was used as the test substance. A betamethasone valerate ointment (0.12%) was used as the control substance.
The Hair Growth Index (HGI) in the dorsal region of each of the mice was determined on day 1, day 7, day 15, day 29, day 43, day 57, day 71 and day 79. […]

Assay [2] concerns C3H/HeJ mouse alopecia model. As to the kind of experiment: Experiment 2: promotion of hair growth in C3H/HeJ mouse alopecia model. The conditions noted are these: Compound A ointment 0.3% or 3% by weight, 50 μL applied to dorsal region once a day for 84 days; median of each group, FIG. 2. The assay is classed as in vivo. The procedure: as §1
A skin specimen having a diameter of 2 cm was prepared from a retired C3H/HeJJcI mouse (CLEA Japan, Inc.) which had spontaneously developed alopecia universalis, and was grafted into a dorsal region of each of eight-week-old female C3H/HeJJcI mice (CLEA Japan, Inc.). […]
The Hair Growth Index (HGI) in the dorsal region of each of the mice was determined on day 1, day 19, day 29, day 43, day 57, day 71 and day 85. The HGI for each of the mice was calculated by measuring, with naked eyes, the level of the state of hair growth (score; 0: no hair, 1: stubble, short broken hairs, 2: sparse intermediate length hairs, 3: normal length and density hairs) and the percentage (%) of the skin area in which each level of state of hair growth occurred, determining the product of the level of the state of hair growth (score) with the percentage (%) of the skin area in which its level of the state of hair growth occurred, and then summing all of the values of the products.

For a further assay, the system named is JAK. The note with it: JAK = one or more of JAK1, JAK2, JAK3, TYK2; described in Patent Literature 1 and 2; cited from earlier work.

Turning to `C[C@H]1CN(C(=O)CC#N)[C@]12CCN(c1ncnc3[nH]ccc13)C2` [Compound A, 3-[(3S,4R)-3-methyl-6-(7H-pyrrolo[2,3-d]pyrimidin-4-yl)-1,6-diazaspiro[3.4]octan-1-yl]-3-oxopropanenitrile], the “Hair Growth Index (HGI) in the dorsal region” value in assay [1] and in assay [2] was “promotion of hair growth” in each case. The JAK inhibition result with JAK is given as “inhibit JAK”.
